According to article PMC6160999, “Pharmacokinetics, Tissue Distribution and Excretion of a Novel Diuretic (PU-48) in Rats” (Pharmaceutics, 2018):
Read-outs that look alike come from different tables or passages of the source.

Assay: Plasma pharmacokinetics after single oral PU-48 SNEDDS
Type: in vivo, rat
Conditions: for AUC(0-inf) / AUC(0-t) / Cmax / Tmax / t1/2 / half-life: rat plasma, n=6
Description: The method for quantification PU-48 in rat samples (plasma, thirteen tissues, urine and bile) has been developed and validated in our preliminary experiment. Briefly, PU-48 was quantitative analyzed by the liquid chromatography-electrospray ionization source-triple quadrupole tandem mass spectrometer (LC-MS/MS) system, which consisted of the Shimazdu LC-20AD pumpers (Shimadzu, Kyoto, Japan), a 20 μL loop and a SPD-M20A PDA detector. Chromatographic separation was accomplished on a Shimazdu Inertsil ODS-4 C18 column (2.1 × 100 mm, 3 µm, Shimadzu) and coupled to the API4000 mass spectrometer detector equipped with the Analyst 1.6 software (AB Sciex, Redwood City, CA, USA). The monitored ion transitions were mass-to-charge ratio (m/z) 289.1 → 229.2 for PU-48 and m/z 385.3 → 267.1 for the internal standard under positive mode. The mobile phase consisted of (A) water, and (B) acetonitrile, both containing 0.05% formic acid using the following gradient elution: 0–2 min (20% B), 2–8 min (20–100% B), 8–9.5 min (100% B), 9.5–13 min (20% B). Sample of 5 μL was injected. The quantification analysis of PU-48 in plasma, urine, bile and tissues (liver, muscle, and adipose tissue) were evaluated for specificity, linearity, precision, accuracy and recovery (See Supplementary Materials Tables S1–S3).
After fasting overnight with free drinking water (12 h before the experiment), eighteen rats were divided randomly into three groups, and blood samples at each time point were collected from six rats. The rats were given three doses of PU-48 (3, 6, or 12 mg/kg, respectively, 1.2 mg/mL in the SNEDDS formulation) by oral gavage. Blood samples (0.3 mL) were collected from the ophthalmic venous plexus at the predose, 0.25, 0.5, 1, 2, 4, 6, 8, 12, 24, 36, and 48 h post-dosing (total 12 time points) in heparinized tubes. The blood samples were centrifuged at 2500 rpm (1200× g) for 15 min and the plasma was stored at −20 °C until analysis.
The non-compartmental analysis method was used to calculate the pharmacokinetic parameters of PU-48 using Drug and Statistical Version 3.0 (DAS 3.0) software (the Mathematical Pharmacology Committee, Chinese Pharmacological Society, Beijing, China). The maximum peak concentration of the drug in plasma (Cmax) and the time to reach the maximum concentration (Tmax) were obtained directly from the experimental data. The area under the plasma concentration-time curves from 0 to infinity (i.e., AUC0–∞) and from 0 to the time of the last quantifiable concentration (AUC0–t) was calculated by the trapezoidal summation. The terminal elimination rate constant (Ke) was derived from the slope of the linear regression curve by fitting the natural logarithms of the terminal concentrations versus time. The terminal elimination half-life (t1/2) was calculated by 0.693/Ke. The data from the quality control (QC) samples were examined by a one-way analysis of variance (ANOVA). All values were expressed as mean ± SD (Standard Deviation).

[1] = plasma, rat, oral PU-48 SNEDDS 3 mg/kg
[2] = plasma, rat, oral PU-48 SNEDDS 6 mg/kg
[3] = plasma, rat, oral PU-48 SNEDDS 12 mg/kg

`COC(=O)c1sc2nc3ccc(OC)cc3cc2c1N` [PU-48, Methyl 3-amino-6-methoxythieno [2,3-b] quinoline-2-carboxylate] gave a concentration at 0.25 h [1] of 11.9 ± 15.5 ng/mL, a concentration at 0.25 h [2] of 51.1 ± 51.2 ng/mL and a concentration at 0.25 h [3] of 91.1 ± 52 ng/mL. It also gave a concentration at 0.5 h [1] of 12.6 ± 11.1 ng/mL, a concentration at 0.5 h [2] of 52.9 ± 46.8 ng/mL and a concentration at 0.5 h [3] of 94.3 ± 49.6 ng/mL. It also gave a concentration at 1 h [1] of 11.8 ± 11.2 ng/mL, a concentration at 1 h [2] of 48.3 ± 32.8 ng/mL and a concentration at 1 h [3] of 74.8 ± 36.1 ng/mL. It also gave a concentration at 2 h [1] of 13.8 ± 16.6 ng/mL, a concentration at 2 h [2] of 16.8 ± 10.1 ng/mL and a concentration at 2 h [3] of 19.7 ± 4.2 ng/mL. It also gave a concentration at 4 h [1] of 1.1 ± 0.7 ng/mL, a concentration at 4 h [2] of 2.3 ± 1.2 ng/mL and a concentration at 4 h [3] of 4.3 ± 3.1 ng/mL. The concentration at 6 h [1] was 0.3 ± 0.2 ng/mL, the concentration at 6 h [2] was 1.2 ± 0.5 ng/mL and the concentration at 6 h [3] was 2.1 ± 0.8 ng/mL. The concentration at 8 h [1] was 0.5 ± 0.9 ng/mL, the concentration at 8 h [2] was 0.6 ± 0.4 ng/mL and the concentration at 8 h [3] was 1.5 ± 0.5 ng/mL. For the same compound, the concentration at 12 h [1] was 0.1 ± 0.1 ng/mL, the concentration at 12 h [2] was 0.3 ± 0.2 ng/mL and the concentration at 12 h [3] was 1.1 ± 0.8 ng/mL. For the same compound, the concentration at 24 h [2] was 0.3 ± 0.3 ng/mL, the concentration at 24 h [3] was 0.1 ng/mL and the concentration at 36 h [2] was 0.2 ± 0.1 ng/mL. It also gave a concentration at 36 h [3] of 0.8 ± 0.9 ng/mL, a concentration at 48 h (plasma, 48 h, rat, oral PU-48 SNEDDS 12 mg/kg) of 0.2 ng/mL and an AUC(0-inf) (oral PU-48 SNEDDS 3 mg/kg) of 60.5 ± 38.5 ng·h/mL. It also gave an AUC(0-t) (oral PU-48 SNEDDS 3 mg/kg) of 60 ± 38.3 ng·h/mL, a Cmax (oral PU-48 SNEDDS 3 mg/kg) of 12.6 ± 11.1 ng/mL and a Tmax (oral PU-48 SNEDDS 3 mg/kg) of 71.4 ± 56.4 min. The t1/2 (oral PU-48 SNEDDS 3 mg/kg) was 7.14 ± 2.93 h, the AUC(0-inf) (oral PU-48 SNEDDS 6 mg/kg) was 108 ± 52.5 ng·h/mL and the AUC(0-t) (oral PU-48 SNEDDS 6 mg/kg) was 107 ± 53 ng·h/mL. For the same compound, the Cmax (oral PU-48 SNEDDS 6 mg/kg) was 52.9 ± 46.8 ng/mL, the Tmax (oral PU-48 SNEDDS 6 mg/kg) was 37.8 ± 18.6 min and the AUC(0-inf) (oral PU-48 SNEDDS 12 mg/kg) was 181 ± 62.5 ng·h/mL. The AUC(0-t) (oral PU-48 SNEDDS 12 mg/kg) was 179 ± 60.1 ng·h/mL, the Cmax (oral PU-48 SNEDDS 12 mg/kg) was 94.3 ± 49.6 ng/mL and the t1/2 (oral PU-48 SNEDDS 12 mg/kg) was 6.87 ± 3.49 h. For the same compound, the “Mean plasma concentration at the 48 h time point” value (rat, oral 3, 6 and 12 mg/kg, LLOQ 0.1 ng/mL) was “below the lower limit of quantitation (LLOQ)”, the half-life (rat, plasma, po, 3 mg/kg, oral PU-48 SNEDDS 3 mg/kg) was 426 ± 174 min and the Tmax (rat, plasma, po, 3 mg/kg, oral PU-48 SNEDDS 3 mg/kg, read-out: Tmax) was 72 ± 54 min. It also gave a half-life (rat, plasma, po, 6 mg/kg, oral PU-48 SNEDDS 6 mg/kg) of 420 ± 162 min, a Tmax (rat, plasma, po, 6 mg/kg, oral PU-48 SNEDDS 6 mg/kg, read-out: Tmax) of 36 ± 18 min and a half-life (rat, plasma, po, 12 mg/kg, oral PU-48 SNEDDS 12 mg/kg) of 414 ± 210 min. It also gave a Tmax (rat, plasma, po, 12 mg/kg, oral PU-48 SNEDDS 12 mg/kg, read-out: Tmax) of 30 ± 16.2 min.
